Entries after “also recorded” stand apart in the source; their conditions may differ.
Experiments:
ovine COX-1 = biological target: T1, ovine COX-1 (Ovis aries, UniProt P05979); assay: In vitro COX-1 inhibition assay (colorimetric COX inhibitor screening kit, Cayman); format: biochemical; settings: mean of three determinations
T1 construct: purchased Cayman Chemicals Inc. 560131
T1 sequence (P05979 25-600): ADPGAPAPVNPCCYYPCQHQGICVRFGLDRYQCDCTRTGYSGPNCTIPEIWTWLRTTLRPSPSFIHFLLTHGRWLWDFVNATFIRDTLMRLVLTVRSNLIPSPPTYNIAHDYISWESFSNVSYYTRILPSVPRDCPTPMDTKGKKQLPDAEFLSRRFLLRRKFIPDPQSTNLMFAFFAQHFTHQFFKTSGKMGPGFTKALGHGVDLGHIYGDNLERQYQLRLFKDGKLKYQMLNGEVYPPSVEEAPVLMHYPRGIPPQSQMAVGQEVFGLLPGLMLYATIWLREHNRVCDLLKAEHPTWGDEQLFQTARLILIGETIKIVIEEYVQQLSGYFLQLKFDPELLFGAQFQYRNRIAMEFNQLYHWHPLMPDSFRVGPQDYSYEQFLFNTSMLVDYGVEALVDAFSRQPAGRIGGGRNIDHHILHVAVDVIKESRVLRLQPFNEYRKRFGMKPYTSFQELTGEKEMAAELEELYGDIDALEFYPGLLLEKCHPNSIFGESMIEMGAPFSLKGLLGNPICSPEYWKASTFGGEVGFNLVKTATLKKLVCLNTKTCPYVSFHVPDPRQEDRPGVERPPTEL
Description: (§1) Both assays were carried out in compliance with the manufacturer’s instructions and in accordance to prior studies[29]^,[33].
(§2) IC50 values (μM) and selectivity indices (SI) were calculated.

IL-1β = IL-1β protein expression by Western blotting; format: cell-based, human; settings: 100 μM compound; PMA 24 h then LPS 72 h; normalised to GAPDH
Description: THP-1 monocytes were exposed to 100 μM of the test compounds, activated with 25 nM PMA for 24 h followed by 100 ng/ml LPS for 72 h. At the end of the incubation period, cells were harvested, proteins were extracted and SDS-PAGE electrophoresis, blotting, and antibody probing were conducted as described previously. Primary rabbit polyclonal antibodies to IL-1β, procaspase-3, and GAPDH were obtained from Abcam (Cambridge, UK). Clarity Western ECL substrate (BioRad, Hercules, CA, USA) was used to obtain a chemiluminescence signal captured by a Chemidoc imaging system (BioRad, Hercules, CA, USA). Band density was estimated using ImageJ software (National Institutes of Health, Bethesda, MD) and normalised to the GAPDH band density as a loading control.

THP-1 cells = assay: Monocyte-to-macrophage differentiation assay, M1 polarisation (PMA then LPS); format: cell-based, human
Description: Monocytes were cultured and differentiated as described previously. THP-1 cells (human acute monocytic leukaemia lineage, American Type Culture Collection, Manassas, VA) were seeded at a density of 20 × 10^5 cells/ml. A set of cells were exposed to 25 nM of phorbol myristate-acetate (PMA, Calbiochem, Darmstadt, Germany) for 24 h to drive differentiation. Another set was similarly treated with PMA followed by 100 ng/ml of lipopolysaccharide (LPS, invivogen, San Diego, CA, USA) for 72 h. After incubation, the supernatant was aspirated and the density of the adherent cells was estimated using MTS colorimetric cell viability kit (Abcam, Cambridge, UK). The inhibitory actions of different compounds on the differentiation process were evaluated by pre-incubation with different concentrations of each compound for 6 h. Cell viability after treatment was normalised to the reading after PMA exposure following a 6-h incubation with DMSO. All experiments were conducted in triplicates. A positive control for the effect of COX1/COX2 inhibition on monocyte-to-macrophage differentiation was obtained by treatment with diclofenac. IC50 values for each compound were determined by non-linear regression as the best fit values of the log [inhibitor] vs. response curve using GraphPad Prism software.

15-LOX = biological target: T2, 15-LOX (Glycine max, UniProt P08170); assay: In vitro 15-LOX inhibition assay (lipoxygenase inhibitor screening kit, Cayman); format: biochemical
T2 construct: purchased Cayman chemicals 760700
T2 sequence (P08170 1-839): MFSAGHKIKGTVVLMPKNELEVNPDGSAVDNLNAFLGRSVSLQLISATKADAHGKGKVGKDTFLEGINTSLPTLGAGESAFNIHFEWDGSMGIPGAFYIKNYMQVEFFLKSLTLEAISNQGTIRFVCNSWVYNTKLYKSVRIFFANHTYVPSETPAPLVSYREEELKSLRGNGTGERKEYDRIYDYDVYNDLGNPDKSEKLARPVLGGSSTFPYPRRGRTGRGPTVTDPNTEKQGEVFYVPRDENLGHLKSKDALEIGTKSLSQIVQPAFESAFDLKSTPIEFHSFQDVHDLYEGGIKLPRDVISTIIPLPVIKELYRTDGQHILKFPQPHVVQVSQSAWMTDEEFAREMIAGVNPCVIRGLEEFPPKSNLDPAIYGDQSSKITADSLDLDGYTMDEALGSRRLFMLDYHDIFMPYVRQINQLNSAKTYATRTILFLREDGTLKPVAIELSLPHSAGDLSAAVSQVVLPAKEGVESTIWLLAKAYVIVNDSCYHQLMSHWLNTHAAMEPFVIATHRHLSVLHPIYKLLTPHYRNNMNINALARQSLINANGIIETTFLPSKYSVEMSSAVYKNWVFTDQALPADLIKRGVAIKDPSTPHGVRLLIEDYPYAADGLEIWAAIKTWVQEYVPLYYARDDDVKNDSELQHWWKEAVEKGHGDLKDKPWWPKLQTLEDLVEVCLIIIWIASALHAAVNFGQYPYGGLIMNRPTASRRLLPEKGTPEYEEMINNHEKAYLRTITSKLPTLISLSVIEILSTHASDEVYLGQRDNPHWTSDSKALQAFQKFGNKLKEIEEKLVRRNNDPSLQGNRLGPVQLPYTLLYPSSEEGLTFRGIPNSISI
Description: as §1, §2

For `COc1ccc(-c2nn(-c3ccccc3)cc2/C=C2\SC(N3CCCCC3)=NC2=O)cc1` [Compound 7, (Z)-5-((3-(4-methoxyphenyl)-1-phenyl-1H-pyrazol-4-yl)methylene)-2-(piperidin-1-yl)thiazol-4(5H)-one], the IC50 (ovine COX-1) was 10.3 µM, the “IL-1β expression in PMA/LPS-challenged THP-1” value (IL-1β) was “attenuating IL-1β production” and the IC50 (THP-1 cells; Homo sapiens, THP-1, 6 h pre-incubation, PMA 25 nM 24 h then LPS 100 ng/ml 72 h, MTS, read-out: IC50 inhibition of THP-1 monocyte differentiation into M1 macrophages) was 15 µM. The “Inhibition of THP-1 differentiation into M1 macrophages (in words)” value (THP-1 cells; PMA then LPS, diclofenac as reference) was “potent inhibitory effects on monocyte-to-macrophage differentiation; also recorded: higher potency compared to diclofenac”, the “15-LOX inhibition, potency compared with quercetin (in words)” value (15-LOX) was “almost equipotent to quercetin” and the IC50 (15-LOX; mean of three determinations) was 3.52 µM.
